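How tested: cells in 96-well plates exposed to compound for 48 hours at five concentrations. TGI marks complete inhibition of growth.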
Columns and labels:
Assay in all cases: inhibition of tumour cell growth, NCI panel, 48 h
786-0 renal = system: 786-0 renal
A549 NSCLC = system: A549 NSCLC
BT-549 breast = system: BT-549 breast
HOP-92 NSCLC = system: HOP-92 NSCLC
IGROV1 ovarian = system: IGROV1 ovarian
MCF7 breast = system: MCF7 breast
MDA-MB-231 breast = system: MDA-MB-231 breast
MDA-N = system: MDA-N
NCI-H23 lung = system: NCI-H23 lung
NCI-H460 lung = system: NCI-H460 lung
OVCAR-3 ovarian = system: OVCAR-3 ovarian
OVCAR-8 ovarian = system: OVCAR-8 ovarian
SF-268 CNS = system: SF-268 CNS
SF-295 CNS = system: SF-295 CNS
SF-539 CNS = system: SF-539 CNS
SK-MEL-2 melanoma = system: SK-MEL-2 melanoma
SN12C renal = system: SN12C renal
SW-620 colon = system: SW-620 colon
TK-10 renal = system: TK-10 renal

| Compound | TGI (786-0 renal) [µM] | TGI (A549 NSCLC) [µM] | TGI (BT-549 breast) [µM] | TGI (HOP-92 NSCLC) [µM] | TGI (IGROV1 ovarian) [µM] | TGI (MCF7 breast) [µM] | TGI (MDA-MB-231 breast) [µM] | TGI (MDA-N) [µM] | TGI (NCI-H23 lung) [µM] | TGI (NCI-H460 lung) [µM] | TGI (OVCAR-3 ovarian) [µM] | TGI (OVCAR-8 ovarian) [µM] | TGI (SF-268 CNS) [µM] | TGI (SF-295 CNS) [µM] | TGI (SF-539 CNS) [µM] | TGI (SK-MEL-2 melanoma) [µM] | TGI (SN12C renal) [µM] | TGI (SW-620 colon) [µM] | TGI (TK-10 renal) [µM] |
| --- | --- | --- | --- | --- | --- | --- | --- | --- | --- | --- | --- | --- | --- | --- | --- | --- | --- | --- | --- |
| CCOP(=O)(OCC)/C(C#N)=C/c1ccc(-c2ccc(F)cc2F)o1 | 27.4 | 30.2 | 24.5 | 35.7 | 34.6 | 43 | 36.6 | 48.7 | 33.6 | 44.2 | 30.1 | 33.2 | 44.3 | 30.8 | 35.8 | 44 | 29.7 | 38.5 | 25.5 |
| NC1CC(N)c2c(Br)sc(Br)c21 (stereo unspecified) | > 100 | > 100 | > 100 | > 100 | > 100 | > 100 | > 100 | > 100 | > 100 | > 100 | > 100 | > 100 | > 100 | > 100 | > 100 | > 100 | > 100 | > 100 | > 100 |
| c1cc(CSP234N5CCN2CCN3CCN4CC5)ccc1CSP123N4CCN1CCN2CCN3CC4 | > 100 | > 100 | > 100 | > 100 | > 100 | > 100 | > 100 | > 100 | > 100 | > 100 | > 100 | > 100 | > 100 | > 100 | > 100 | > 100 | > 100 | > 100 | > 100 |
| Cc1ccccc1NC(=O)C(=O)CC(=O)c1sc(Nc2ccccc2[N+](=O)[O-])nc1C | 48.3 | > 100 | 79 | 59.6 | > 100 | 70.3 | 40.2 | > 100 | > 100 | > 100 | 79.5 | > 100 | > 100 | 66.7 | 91 | > 100 | > 100 | > 100 | 81.5 |
